Laboratory results taken from ChEMBL document CHEMBL1817623, “Sesterterpenes from the tropical sponge Coscinoderma sp” (J Nat Prod, 2011).
Converted amounts (≈) assume the structure as drawn.

Assays:
[1] = tested on: Staphylococcus aureus; assay: Antimicrobial activity against Staphylococcus aureus ATCC 6538p; type: functional
[2] = tested on: Bacillus subtilis; assay: Antimicrobial activity against Bacillus subtilis ATCC 6633; type: functional
[3] = tested on: Micrococcus luteus; assay: Antimicrobial activity against Micrococcus luteus IFO 12708; type: functional
[4] = tested on: Proteus vulgaris; assay: Antimicrobial activity against Proteus vulgaris ATCC 3851; type: functional
[5] = tested on: Escherichia coli; assay: Antimicrobial activity against Escherichia coli ATCC 35270; type: functional
[6] = tested on: Salmonella typhimurium; assay: Antimicrobial activity against Salmonella Typhimurium ATCC 14028; type: functional, Salmonella enterica subsp. enterica serovar Typhimurium; details: Salmonella enterica
[7] = tested on: K562; assay: Cytotoxicity against human K562 cells; type: functional; details: read-out: LC50 (the source's name)
[8] = tested on: Aspergillus fumigatus; assay: Antimicrobial activity against Aspergillus fumigatus HIC 6094; type: functional
[9] = tested on: Candida albicans; assay: Antimicrobial activity against Candida albicans ATCC 10231; type: functional
[10] = target: T1, Sortase A (Staphylococcus aureus, UniProt Q9S446); assay: Inhibition of recombinant Staphylococcus aureus ATCC 6538p sortase lacking the N-terminal membrane anchor domain expressed in Escherichia coli cells TOP10 using Dabcyl-QALPETGEE-Edans substrate measured after 1 hr by fluorescence S13 spectrophotometry
T1 sequence (Q9S446 whole entry): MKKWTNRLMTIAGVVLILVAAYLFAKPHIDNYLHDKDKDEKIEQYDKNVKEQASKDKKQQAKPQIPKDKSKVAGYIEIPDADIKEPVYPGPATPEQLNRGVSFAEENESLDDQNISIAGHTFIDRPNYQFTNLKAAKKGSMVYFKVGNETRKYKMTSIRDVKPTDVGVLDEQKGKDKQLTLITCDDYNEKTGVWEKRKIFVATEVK

[11] = target: Isocitrate lyase (Candida albicans, UniProt Q9P8Q7); assay: Inhibition of Candida albicans isocitrate lyase
Sequence of Isocitrate lyase (Q9P8Q7 whole entry): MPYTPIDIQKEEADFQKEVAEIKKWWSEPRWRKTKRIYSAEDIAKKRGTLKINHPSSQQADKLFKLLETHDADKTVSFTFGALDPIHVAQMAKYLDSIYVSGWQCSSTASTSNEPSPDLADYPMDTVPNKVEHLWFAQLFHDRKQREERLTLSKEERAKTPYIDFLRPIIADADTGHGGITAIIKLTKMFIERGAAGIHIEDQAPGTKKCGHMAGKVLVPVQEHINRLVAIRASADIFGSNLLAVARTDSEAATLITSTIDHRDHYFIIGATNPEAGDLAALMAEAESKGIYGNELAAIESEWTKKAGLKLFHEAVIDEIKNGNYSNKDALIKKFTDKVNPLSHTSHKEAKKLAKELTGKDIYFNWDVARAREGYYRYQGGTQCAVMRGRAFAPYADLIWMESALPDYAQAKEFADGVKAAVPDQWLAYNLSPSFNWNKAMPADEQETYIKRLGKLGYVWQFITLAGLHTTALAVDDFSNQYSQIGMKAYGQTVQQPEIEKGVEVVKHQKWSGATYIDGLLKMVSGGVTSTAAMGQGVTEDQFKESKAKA

[12] = tested on: Trichophyton mentagrophytes; assay: Antimicrobial activity against Trichophyton mentagrophytes IFO 40996; type: functional
[13] = tested on: Trichophyton rubrum; assay: Antimicrobial activity against Trichophyton rubrum IFO 9185; type: functional
[14] = target: Sodium/potassium-transporting ATPase; assay: Inhibition of human Na(+)/K(+) ATPase assessed as reduction in ouabain-sensitive and K(+)-dependent cleavage of fluorescent pseudosubstrate 3-O-methylfluorescein phosphate by fluorometric method; type: protein-complex assay

| SMILES | MIC [1] | MIC [2] | MIC [3] | MIC [4] | MIC [5] | MIC [6] | CC50 [7] | MIC [8] | MIC [9] | IC50 [10] | IC50 [11] | MIC [12] | MIC [13] | IC50 [14] |
| --- | --- | --- | --- | --- | --- | --- | --- | --- | --- | --- | --- | --- | --- | --- |
| CC1(C)S[C@@H]2[C@H](NC(=O)[C@H](N)c3ccccc3)C(=O)N2[C@H]1C(=O)O [AMPICILLIN] | 1.56 µg/mL (≈ 4.46 µM) | 0.39 µg/mL (≈ 1.12 µM) | 0.39 µg/mL (≈ 1.12 µM) | 0.39 µg/mL (≈ 1.12 µM) | 6.25 µg/mL (≈ 17.9 µM) | 0.39 µg/mL (≈ 1.12 µM) | – | – | – | – | – | – | – | – |
| CC1(C)CCC[C@]2(C)[C@H]3CC/C(=C\OS(=O)(=O)[O-])[C@H](CCc4ccoc4)[C@@]3(C)CC[C@@H]12.C[N+](C)=C(N)N [SUVANINE] | 100 µg/mL | 1.56 µg/mL | > 100 µg/mL | > 100 µg/mL | > 100 µg/mL | 50 µg/mL | > 200 µM | > 100 µg/mL | > 100 µg/mL | > 200 µM | 17 µM | > 100 µg/mL | > 100 µg/mL | 8 µM |
| COc1cccc2c1C(=O)c1c(O)c3c(c(O)c1C2=O)C[C@@](O)(C(=O)CO)C[C@@H]3O[C@H]1C[C@H](N)[C@H](O)[C@H](C)O1 [DOXORUBICIN] | – | – | – | – | – | – | 13 µM | – | – | – | – | – | – | – |
| CC1=CC[C@H]2C(C)(C)CCC[C@]2(C)[C@H]1C[C@@H](OS(=O)(=O)[O-])[C@H](C)CCC/C(C)=C\Cc1cc(O)ccc1O.[Na+] | > 100 µg/mL | > 100 µg/mL | > 100 µg/mL | > 100 µg/mL | > 100 µg/mL | > 100 µg/mL | > 200 µM | > 100 µg/mL | > 100 µg/mL | 100 µM | 52 µM | > 100 µg/mL | > 100 µg/mL | 5 µM |
| C[C@@H]1[C@H](O)[C@@H](C)/C=C/C=C/C=C/C=C/C=C/C=C/C=C/[C@H](O[C@@H]2O[C@H](C)[C@@H](O)[C@H](N)[C@@H]2O)C[C@@H]2O[C@](O)(C[C@@H](O)C[C@@H](O)[C@H](O)CC[C@@H](O)C[C@@H](O)CC(=O)O[C@H]1C)C[C@H](O)[C@H]2C(=O)O [AMPHOTERICIN B] | – | – | – | – | – | – | – | 3.13 µg/mL (≈ 3.39 µM) | 0.78 µg/mL (≈ 0.844 µM) | – | – | 3.13 µg/mL (≈ 3.39 µM) | 3.13 µg/mL (≈ 3.39 µM) | – |
| CC1(C)CCC[C@]2(C)[C@H]3CC/C(=C\OS(=O)(=O)[O-])[C@H](CCC4=CC(=O)O[C@@H]4O)[C@@]3(C)CC[C@@H]12.[Na+] | > 100 µg/mL | > 100 µg/mL | > 100 µg/mL | > 100 µg/mL | > 100 µg/mL | > 100 µg/mL | 59 µM | > 100 µg/mL | > 100 µg/mL | > 200 µM | – | > 100 µg/mL | > 100 µg/mL | 5 µM |
| CC1=CC[C@H]2C(C)(C)CCC[C@]2(C)[C@H]1C/C=C(/C)CCC/C(C)=C/Cc1cc(O)ccc1O [COSCINOQUINOL] | > 100 µg/mL | 3.25 µg/mL (≈ 7.21 µM) | 25 µg/mL (≈ 55.5 µM) | 6.25 µg/mL (≈ 13.9 µM) | > 100 µg/mL | 25 µg/mL (≈ 55.5 µM) | 8 µM | > 100 µg/mL | > 100 µg/mL | > 200 µM | > 200 µM | > 100 µg/mL | > 100 µg/mL | 44 µM |
| CO[C@@H]1O[C@H](OC)[C@](O)(CC[C@H]2/C(=C/OS(=O)(=O)[O-])CC[C@H]3[C@]2(C)CC[C@H]2C(C)(C)CCC[C@]32C)[C@H]1O.[Na+] | > 100 µg/mL | > 100 µg/mL | > 100 µg/mL | > 100 µg/mL | > 100 µg/mL | > 100 µg/mL | 15 µM | > 100 µg/mL | > 100 µg/mL | > 200 µM | 75 µM | > 100 µg/mL | > 100 µg/mL | 6 µM |
| CC1(C)CCC[C@]2(C)[C@H]3CC/C(=C\OS(=O)(=O)[O-])[C@H](CCC4=CCNC4=O)[C@@]3(C)CC[C@@H]12.[Na+] | > 100 µg/mL | > 100 µg/mL | > 100 µg/mL | > 100 µg/mL | > 100 µg/mL | > 100 µg/mL | 22 µM | > 100 µg/mL | > 100 µg/mL | > 200 µM | 62 µM | > 100 µg/mL | > 100 µg/mL | 18 µM |
| CO[C@@H]1C=C(CC[C@H]2/C(=C/OS(=O)(=O)[O-])CC[C@H]3[C@]2(C)CC[C@H]2C(C)(C)CCC[C@]32C)C(=O)O1.[Na+] | > 100 µg/mL | > 100 µg/mL | > 100 µg/mL | > 100 µg/mL | > 100 µg/mL | > 100 µg/mL | 16 µM | > 100 µg/mL | > 100 µg/mL | > 200 µM | 64 µM | > 100 µg/mL | > 100 µg/mL | 6 µM |
| CC1=CC[C@H]2C(C)(C)CCC[C@]2(C)[C@H]1C[C@@H](OS(=O)(=O)[O-])[C@H](C)CCC/C(C)=C/Cc1cc(O)ccc1O.[Na+] [HALISULFATE 1] | 50 µg/mL | 3.13 µg/mL | – | – | > 100 µg/mL | – | > 200 µM | > 100 µg/mL | > 100 µg/mL | 36 µM | 19 µM | > 100 µg/mL | > 100 µg/mL | 3 µM |
| C=C1CC[C@H]2C(C)(C)CCC[C@]2(C)[C@H]1C[C@@H](OS(=O)(=O)[O-])[C@H](C)CCC/C(C)=C/Cc1cc(O)ccc1O.[Na+] | – | – | – | – | > 100 µg/mL | – | > 200 µM | > 100 µg/mL | > 100 µg/mL | 98 µM | 45 µM | > 100 µg/mL | > 100 µg/mL | 4 µM |
| CC1=CC[C@H]2C(C)(C)CCC[C@]2(C)[C@H]1C/C=C(\C)CCC/C(C)=C/Cc1cc(O)ccc1O | > 100 µg/mL | > 100 µg/mL | > 100 µg/mL | > 100 µg/mL | > 100 µg/mL | > 100 µg/mL | 8 µM | > 100 µg/mL | > 100 µg/mL | > 200 µM | > 200 µM | > 100 µg/mL | > 100 µg/mL | 117 µM |
| CC1=CCC[C@@H](C)[C@]1(C)CC/C(C)=C/CCC(CCCc1ccoc1)COS(=O)(=O)[O-].[Na+] (stereo partly drawn) [HALISULFATE 2] | > 100 µg/mL | 6.25 µg/mL | > 100 µg/mL | 25 µg/mL | > 100 µg/mL | > 100 µg/mL | > 200 µM | > 100 µg/mL | > 100 µg/mL | > 200 µM | 24 µM | > 100 µg/mL | > 100 µg/mL | 5 µM |
| CC1(C)CCC[C@]2(C)[C@H]3CC/C(=C\OS(=O)(=O)[O-])[C@H](CCC4=CC(=O)OC4)[C@@]3(C)CC[C@@H]12.[Na+] | > 100 µg/mL | > 100 µg/mL | > 100 µg/mL | > 100 µg/mL | > 100 µg/mL | > 100 µg/mL | 56 µM | > 100 µg/mL | > 100 µg/mL | > 200 µM | 150 µM | > 100 µg/mL | > 100 µg/mL | 19 µM |
| CO[C@H]1C=C(CC[C@H]2/C(=C/OS(=O)(=O)[O-])CC[C@H]3[C@]2(C)CC[C@H]2C(C)(C)CCC[C@]32C)[C@@H](OC)O1.[Na+] | > 100 µg/mL | > 100 µg/mL | > 100 µg/mL | > 100 µg/mL | > 100 µg/mL | > 100 µg/mL | 49 µM | > 100 µg/mL | > 100 µg/mL | > 200 µM | 87 µM | > 100 µg/mL | > 100 µg/mL | 14 µM |
| CC1(C)CCC[C@]2(C)[C@H]3CC/C(=C\OS(=O)(=O)[O-])[C@H](CCc4ccoc4)[C@@]3(C)CC[C@@H]12.[Na+] [SUVANINE'S SODIUM SALT] | 25 µg/mL | 1.56 µg/mL | 25 µg/mL | 25 µg/mL | > 100 µg/mL | 50 µg/mL | 16 µM | > 100 µg/mL | > 100 µg/mL | > 200 µM | 5 µM | > 100 µg/mL | > 100 µg/mL | 9 µM |
| O=C(O)CC[N+](=O)[O-] | – | – | – | – | – | – | – | – | – | – | 9 µM | – | – | – |
| CO[C@H]1C=C(CC[C@H]2/C(=C/OS(=O)(=O)[O-])CC[C@H]3[C@]2(C)CC[C@H]2C(C)(C)CCC[C@]32C)C(=O)O1.[Na+] | > 100 µg/mL | > 100 µg/mL | > 100 µg/mL | > 100 µg/mL | > 100 µg/mL | > 100 µg/mL | 45 µM | > 100 µg/mL | > 100 µg/mL | > 200 µM | 165 µM | > 100 µg/mL | > 100 µg/mL | 17 µM |
